According to patent publication US6294152A, “Iron(III) complexes as contrast agents for image enhancement in magnetic resonance imaging” (The University of Toledo, priority 1999, dated 2001):
Like-named read-outs stand apart in the source and are kept apart here.

Experiments:
mice [1] = conditions: metal chloride salts in aqueous solution, i.p.; cited from earlier work
[2] = Relaxivity in Water and Plasma; format: physicochemical; conditions: 20 MHz, 37° C; for relaxivity r1 (plasma): in plasma; for relaxivity r1 (H2O): in water
Method: Relaxivity values (mM^-1 s^-1) have been determined in water and in plasma at 20 MHz and 37° C.

mice [3] = experiment: Toxicity Studies in Mice, LD50 i.v.; format: in vivo
Excerpt: The LD50 value of the tris(ligand) iron(III) complex of ligand IX, Fe-DIOLMAL, has been determined i.v. in mice and found to be ca. 20.0 mmol/kg bw.

iron
LD50 (mice [1]): 1.6 mmol/kg

Cc1c([O-])c(=O)ccn1CCO.Cc1c([O-])c(=O)ccn1CCO.Cc1c([O-])c(=O)ccn1CCO.[Fe+3] [Fe-ETOHMAL]
relaxivity r1 (plasma) [2]: 2.0 mM⁻¹ s⁻¹
relaxivity r1 (H2O) [2]: 1.7 mM⁻¹ s⁻¹
LD50 (mice [3]): ca. 7.5 mmol/kg bw

[Gd] [gadolinium]
LD50 (mice [1]): 1.4 mmol/kg

Cc1c([O-])c(=O)ccn1CCC(=O)O.Cc1c([O-])c(=O)ccn1CCC(=O)O.Cc1c([O-])c(=O)ccn1CCC(=O)O.[Fe+3] [Fe-BETALA]
relaxivity r1 (plasma) [2]: 2.1 mM⁻¹ s⁻¹
relaxivity r1 (H2O) [2]: 1.8 mM⁻¹ s⁻¹

[Mn+2] [manganese]
LD50 (mice [1]): 1.5 mmol/kg
